Among the data in patent US11685714B2, “Prodrugs of cytotoxic active agents having enzymatically cleavable groups” (BAYER PHARMA AKTIENGESELLSCHAFT, priority 2016, dated 2023) are IC50 values, retold here.

Broadly, the IC50 is the concentration at which inhibition is half-maximal. A high value points to weaker potency.

Counter-ions that a name gives are not always drawn.

What all share (assay type): cell-based
Assay [1] deals with NCI-H292: human mucoepidermoid lung carcinoma cells. The assay is described as follows: MTT assay on NCI-H292. The note with it: 96 h incubation. The method, then:
(§1) The analysis of the cytotoxic effects of the ADCs was carried out with various cell lines:
(§2) The cells were cultivated by the standard method as stated by the American Tissue Culture Collection (ATCC) or the Leibniz-lnstitut DSMZ-Deutsche Sammlung von Mikroorganismen und Zellkulturen GmbH (DSMZ) for the cell lines in question.
(§3) The cells were then incubated in an incubator at 37° C. and 5% carbon dioxide. […] To this end, the MTT reagent was incubated with the cells for 4 h, followed by lysis of the cells overnight by addition of the detergent. […] The measured data were used to calculate the ICo50 of the growth inhibition using the DRC (dose response curve). The proliferation of cells which were not treated with test substance but were otherwise identically treated was defined as the 100% figure.
Background: Tetrazolium assays rely on reduction of a dye to a coloured formazan, in cell work by metabolically active cells.

In assay [2] the test system is KPL4: human breast cancer cell line. The assay is described as follows: MTT assay on KPL4. The note with it: 96 h incubation. The method, then: as §1, §2, §3
The test system of assay [3] is SK-HEP-1: human liver cell cancer line. The assay is described as follows: MTT assay on SK-HEP-1. The note with it: SK-HEP1, 96 h, growth inhibition, 96 h incubation. How it is done: as §1, §2, §3
Setting [4] is: NCI-H292, 96 h, growth inhibition.

In the case of `CC(C)(C)[C@H](c1cc(-c2cc(F)ccc2F)cn1Cc1ccccc1)N(CC[C@H](N)C(=O)NCCNC(=O)CNC(=O)CC(SC[C@H](N)C(=O)O)C(=O)O)C(=O)CO` (single isomer, unassigned) [Example M13], the 50% inhibitory concentration (IC50) in assay [1] (setting [4]) is 152 nM; in assay [2] (KPL4, 96 h, growth inhibition), 169 nM; in assay [3], 68.1 nM.
As to `CC(C)(C)[C@H](c1cc(-c2cc(F)ccc2F)cn1Cc1ccccc1)N(CC[C@H](N)C(=O)NCCNC(=O)CNC(=O)CC(SC[C@H](N)C(=O)O)C(=O)O)C(=O)CO` (single isomer, unassigned) [Example M14], the 50% inhibitory concentration (IC50) in assay [1] (setting [4]) was 174 nM; in assay [2] (KPL4, 96 h, growth inhibition), 177 nM; in assay [3], 94.3 nM.
The corresponding values for `CC(C)(C)[C@H](c1cc(-c2cc(F)ccc2F)cn1Cc1ccccc1)N(CC[C@H](N)C(=O)NCCNC(=O)CNC(=O)C(CC(=O)O)SC[C@H](N)C(=O)O)C(=O)CO` (single isomer, unassigned) [Example M15] are 133 nM, 169 nM and 49.8 nM.
Take `CC(C)(C)[C@H](c1cc(-c2cc(F)ccc2F)cn1Cc1ccccc1)N(CC[C@H](N)C(=O)NCCNC(=O)CN1C(=O)CC(SC[C@H](N)C(=O)O)C1=O)C(=O)CO` (stereo partly drawn) [Example M1, S-[1-(2-{[2-({(2S)-2-Amino-4-[{(1R)-1-[1-benzyl-4-(2,5-difluorophenyl)-1H-pyrrol-2-yl]-2,2-dimethylpropyl}(glycoloyl)amino]butanoyl}amino)ethyl]amino}-2-oxoethyl)-2,5-dioxopyrrolidin-3-yl]-L-cysteine/trifluoroacetic acid (1:1)]: the IC50 in assay [1] (setting [4]) was 500 nM; in assay [2] (KPL4, 96 h, growth inhibition) it was 500 nM.
In the case of `CC(C)(C)[C@H](c1cc(-c2cc(F)ccc2F)cn1Cc1ccccc1)N(CC[C@H](N)C(=O)NCCOCCN1C(=O)CC(SC[C@H](N)C(=O)O)C1=O)C(=O)CO` (stereo partly drawn) [Example M4, S-(1-{2-[2-({(2S)-2-Amino-4-[{(1R)-1-[1-benzyl-4-(2,5-difluorophenyl)-1H-pyrrol-2-yl]-2,2-dimethylpropyl}(glycoloyl)amino]butanoyl}amino)ethoxy]ethyl}-2,5-dioxopyrrolidin-3-yl)-L-cysteine/trifluoroacetic acid (1:1)], the concentration for half-maximal inhibition (IC50) is 44.3 nM in assay [1] (setting [4]); 176 nM in assay [2] (KPL4, 96 h, growth inhibition); 34.5 nM in assay [3].
As for `CC(C)(C)[C@H](c1cc(-c2cc(F)ccc2F)cn1Cc1ccccc1)N(CC[C@H](N)C(=O)NCCNC(=O)CSC[C@H](N)C(=O)O)C(=O)CO` [Example M7, S-(2-{[2-({(2S)-2-Amino-4-[{(1R)-1-[1-benzyl-4-(2,5-difluorophenyl)-1H-pyrrol-2-yl]-2,2-dimethylpropyl}(glycoloyl)amino]butanoyl}amino)ethyl]amino}-2-oxoethyl)-L-cysteine/trifluoroacetic acid (1:1)], the 50% inhibitory concentration (IC50) in assay [1] (setting [4]) came to 21.2 nM; in assay [2] (KPL4, 96 h, growth inhibition) it was 92.3 nM.
The compound `CC(C)(C)[C@H](c1cc(-c2cc(F)ccc2F)cn1Cc1ccccc1)N(CC[C@H](N)C(=O)NCCNC(=O)CNC(=O)CC1SC[C@@H](C(=O)O)NC1=O)C(=O)CO` (stereo partly drawn) [Example M08, (3R)-6-{(11 S,15R)-11-Amino-15-[1-benzyl-4-(2,5-difluorophenyl)-1H-pyrrol-2-yl]-14-glycoloyl-16,16-dimethyl-2,5,10-trioxo-3,6,9,14-tetraazaheptadec-1-yl}-5-oxothiomorpholine-3-carboxylic acid/trifluoroacetic acid (1:1)] registered an IC50 in assay [2] (KPL4, 96 h, growth inhibition) of 487 nM.
With `CC(C)(C)[C@H](c1cc(-c2cc(F)ccc2F)cn1Cc1ccccc1)N(CCCN)C(=O)CO` [Example M9, N-(3-Aminopropyl)-N-{(1R)-1-[1-benzyl-4-(2,5-difluorophenyl)-1H-pyrrol-2-yl]-2,2-dimethylpropyl}-2-hydroxyacetamide], the IC50 came out at 0.27 nM in assay [1] (NCI-H292, growth inhibition) and 0.514 nM in assay [2] (KPL4, growth inhibition).
Consider `CC(C)(C)[C@H](c1cc(-c2cc(F)ccc2F)cn1Cc1ccccc1)N(CCCN)C(=O)CSC[C@H](N)C(=O)O` [Example M11, S-{2-[(3-Aminopropyl){(1R)-1-[1-benzyl-4-(2,5-difluorophenyl)-1H-pyrrol-2-yl]-2,2-dimethylpropyl}amino]-2-oxoethyl}-L-cysteine/trifluoroacetic acid (1:2)], for which the IC50 in assay [1] (setting [4]) came to 0.0432 nM; in assay [3], 0.189 nM.
The like results for `CC(C)(C)[C@H](c1cc(-c2cc(F)ccc2F)cn1Cc1ccccc1)N(CCCN)C(=O)CSC[C@H](NC(=O)CCC(=O)O)C(=O)O` [Example M12, 4-{[(1R)-2-({2-[(3-Aminopropyl){(1R)-1-[1-benzyl-4-(2,5-difluorophenyl)-1H-pyrrol-2-yl]-2,2-dimethylpropyl}amino]-2-oxoethyl}sulphanyl)-1-carboxyethyl]amino}-4-oxobutanoic acid/trifluoroacetic acid (1:1)] were, in that order, 33 nM and 21.1 nM.
In assay [1] (setting [4]), `CC(C)(C)[C@H](c1cc(-c2cc(F)ccc2F)cn1Cc1ccccc1)N(CC[C@H](N)C(=O)O)C(=O)CO` [Example M17, (2S)-2-Amino-4-[{(1R)-1-[1-benzyl-4-(2,5-difluorophenyl)-1H-pyrrol-2-yl]-2,2-dimethylpropyl}(glycoloyl)amino]butanoic acid hydrochloride (1:1)] registered an IC50 of 7.35 nM.
In assay [1] (setting [4]), `CC(C)(C)[C@H](c1cc(-c2cc(F)ccc2F)cn1Cc1ccccc1)N(CC[C@H](N)C(=O)NCCNC(=O)CC[C@H](N)C(=O)O)C(=O)CO` [Example M18, N-[2-({(2S)-2-Amino-4-[{(1R)-1-[1-benzyl-4-(2,5-difluorophenyl)-1H-pyrrol-2-yl]-2,2-dimethylpropyl}(glycoloyl)amino]butanoyl}amino)ethyl]-L-glutamine/trifluoroacetic acid (1:1)] yielded a half-maximal inhibitory concentration (IC50) of 35.5 nM.
The compound `CC(C)(C)[C@H](c1cc(-c2cc(F)ccc2F)cn1Cc1ccccc1)N(CC[C@H](N)C(=O)NCCC(=O)NCCCC[C@H](N)C(=O)O)C(=O)CO` [Example M19, N^6—(N-{(2S)-2-Amino-4-[{(1R)-1-[1-benzyl-4-(2,5-difluorophenyl)-1H-pyrrol-2-yl]-2,2-dimethylpropyl}(glycoloyl)amino]butanoyl}-beta-alanyl)-L-lysine/trifluoroacetic acid (1:1)] yielded a 50% inhibitory concentration (IC50) in assay [1] (setting [4]) of 121 nM.
For `CC(C)(C)[C@H](c1cc(-c2cc(F)ccc2F)cn1Cc1ccccc1)N(CCCN)C(=O)CSC[C@H](NC(=O)CCOCCOCCOCCOCCNC(=O)CNC(=O)CC(SC[C@H](N)C(=O)O)C(=O)O)C(=O)O` (stereo partly drawn) [Example M20, (1R,4R,27R,33R)-1-Amino-32-(3-aminopropyl)-33-[1-benzyl-4-(2,5-difluorophenyl)-1H-pyrrol-2-yl]-34,34-dimethyl-6,9,25,31-tetraoxo-13,16,19,22-tetraoxa-3,29-dithia-7,10,26,32-tetraazapentatriacontane-1,4,27-tricarboxylic acid/trifluoroacetic acid (1:2)], the concentration for half-maximal inhibition (IC50) in assay [1] (setting [4]) is 149 nM; in assay [2] (KPL4, 96 h, growth inhibition), 213 nM; in assay [3] it was 181 nM.
`CC(C)(C)[C@H](c1cc(-c2cc(F)ccc2F)cn1Cc1ccccc1)N(CC[C@H](N)C(=O)NCCC(=O)N[C@@H](CCC(=O)O)C(=O)O)C(=O)CO` [Example M23, N-{(2S)-2-Amino-4-[{(1R)-1-[1-benzyl-4-(2,5-difluorophenyl)-1H-pyrrol-2-yl]-2,2-dimethylpropyl}(glycoloyl)amino]butanoyl}-beta-alanyl-L-glutamic acid/trifluoroacetic acid (1:1)]: the IC50 in assay [1] (setting [4]) amounted to 500 nM; in assay [2] (KPL4, 96 h, growth inhibition) it was 500 nM; in assay [3], 500 nM.
As for `CC(C)(C)[C@H](c1cc(-c2cc(F)ccc2F)cn1Cc1ccccc1)N(CC[C@H](N)C(=O)NCCC(=O)N[C@H](CCC(=O)O)C(=O)O)C(=O)CO` [Example M24, N-{(2S)-2-Amino-4-[{(1R)-1-[1-benzyl-4-(2,5-difluorophenyl)-1H-pyrrol-2-yl]-2,2-dimethylpropyl}(glycoloyl)amino]butanoyl}-beta-alanyl-D-glutamic acid/trifluoroacetic acid (1:1)], the concentration for half-maximal inhibition (IC50) worked out at 167 nM in assay [1] (setting [4]); 500 nM in assay [2] (KPL4, 96 h, growth inhibition); 57.3 nM in assay [3].
For `CC(C)(C)[C@H](c1cc(-c2cc(F)ccc2F)cn1Cc1ccccc1)N(CC[C@H](N)C(=O)NCCNC(=O)CNC(=O)C(CC(=O)O)SC[C@H](N)C(=O)O)C(=O)CO` (stereo partly drawn) [Example M27, 4-[(2-{[2-({(2S)-2-Amino-4-[{(1R)-1-[1-benzyl-4-(2,5-difluorophenyl)-1H-pyrrol-2-yl]-2,2-dimethylpropyl}(glycoloyl)amino]butanoyl}amino)ethyl]amino}-2-oxoethyl)amino]-3-{[(2R)-2-amino-2-carboxyethyl]sulphanyl}-4-oxobutanoic acid/trifluoroacetic acid (1:1)], the concentration for half-maximal inhibition (IC50) turned out to be 276 nM in assay [1] (setting [4]) and 89 nM in assay [3].
